One series concerns HMOX1. As to the kind of experiment: Expression of antioxidant enzyme HMOX1, quantitative real-time PCR. Conditions: NHEM, GDS23 500, 1000, 2000 μM, 6 hours; mRNA corrected with GAPDH, control 100%; FIG. 5. The class given is cell-based, human. The protocol:
(§1) After samples were prepared using normal human epidermal melanocytes, RNA was extracted, and expression and amplification of genes of each of target substances (Nrf-2, PPARG, NQO-1, CAT, and HMOX1) were checked by real-time PCR. PPARG is the genetic code of the protein PPARγ and is one of oxidative stress response genes.
(§2) Sample 1 is a control (no GDS23 added). Samples 2 to 4 are different from one another in the amount of GDS23. • Sample 1: Control (N.C.) • Sample 2: GDS23 (500 μM) • Sample 3: GDS23 (1000 μM) • Sample 4: GDS23 (2000 μM)
(§3) Thereafter, RNA was extracted from the cultured cells for each sample. Reverse transcription of the extracted RNA was performed to generate cDNA, and the quantity of mRNA of each target substance was determined by quantitative real-time PCR expression analysis. GAPDH (glyceraldehyde-3-phosphate dehydrogenase) was used as an internal standard. In the analysis, the mRNA expression level of each target substance was corrected with a value of the expression level of GAPDH as the internal standard in the same sample, and thereafter the correction value for each sample was calculated, assuming the correction value for the control as 100%.

For a further series, the system named is NQO-1. Briefly: Expression of antioxidant enzyme NQO-1, quantitative real-time PCR. The series is classed as cell-based, human. Particulars: NHEM, GDS23 500, 1000, 2000 μM, 6 hours; mRNA corrected with GAPDH, control 100%; FIG. 3. On the procedure:
as §1, §2, §3

A short description of another series: Diameter of vesicles. The series is classed as physicochemical. Particulars: vesicles self-formed in a 2% aqueous solution. The protocol:
Sample 62 was added to a medium in the form of refined vesicles. The refined vesicles were prepared in the following manner. […] Among the vesicles obtained by this preparation method, 97.3% had diameters in a range of 20 to 40 nm. In general, for example, the average diameters of vesicles self-formed in a 2% aqueous solution of GDM12 and a 2% aqueous solution of GDS23 are both about 140 nm.

Another series has as its system PPARG. As to the kind of experiment: Expression of oxidative stress response gene PPARG, quantitative real-time PCR. Particulars: NHEM, GDS23 500, 1000, 2000 μM, 6 hours; mRNA corrected with GAPDH, control 100%; FIG. 2. The series is classed as cell-based, human. On the procedure:
as §1, §2, §3
On the technique in general: In qPCR the cycle at which signal appears reflects the starting amount.

The test system of the next series is CAT. As to the kind of experiment: Expression of antioxidant enzyme CAT, quantitative real-time PCR. The class given is cell-based, human. Conditions: NHEM, GDS23 500, 1000 μM (Samples 1 to 3), 6 hours; mRNA corrected with GAPDH, control 100%; FIG. 4. The protocol:
as §1, §2, §3

The next series deals with Nrf-2. As to the kind of experiment: Expression of oxidative stress response gene Nrf-2, quantitative real-time PCR. The class given is cell-based, human. Conditions: NHEM, GDS23 500, 1000, 2000 μM, 6 hours; mRNA corrected with GAPDH, control 100%; FIG. 1. The protocol:
as §1, §2, §3

For the next series, the system named is glutathione. Briefly: Expression of antioxidant protein: total glutathione per protein quantity, glutathione reductase recycling method. The class given is cell-based, human. Conditions: NHEM, GDS23 500 to 4000 μM, 24 hours; control 100%; FIG. 6. On the procedure:
After samples were prepared using normal human epidermal melanocytes, the quantity of glutathione as an antioxidant protein in cells was checked.
Sample 5 is a control (no GDS23 added). Samples 6 to 9 are different from one another in the amount of GDS23. • Sample 5: Control (N.C.) • Sample 6: GDS23 (500 μM) • Sample 7: GDS23 (1000 μM) • Sample 8: GDS23 (2000 μM) • Sample 9: GDS23 (4000 μM)
Thereafter, for each sample, the protein quantity in epidermal melanocytes and the quantity of total glutathione (GSH+GSSG) were determined by a glutathione reductase recycling method, using an assay kit (TaKaRa BCA Protein Assay Kit: from Takara Bio Inc.). The total quantity of glutathione per protein quantity was obtained from the protein quantity and the total quantity of glutathione determined for each sample, and then an increased ratio for each sample was calculated when an increased ratio for the control was assumed as 100%.

The text below walks through data of patent publication US11642369B2, “Method for enhancing expression of antioxidant in epidermis” (J-Network, Inc., priority 2020, dated 2023).

For PEG-23 glycerol distearate [GDS23], in the series with HMOX1, the “expression level of HMOX1” value is on record as “Enhancement of HMOX1”. In addition, the “expression level of NQO-1” value in the series with NQO-1 is recorded as “enhancement of NQO-1”. Besides, the “average diameters of vesicles” value in the series “Diameter of vesicles” is given as “about 140 nm”. Moreover, the “expression level of PPARG” value with PPARG is recorded as “enhances expression”. Also, in the series on CAT, the “expression level of CAT” value was “enhancement of CAT”. Moreover, the “expression level of Nrf-2” value in the series on Nrf-2 is listed as “enhances expression”. The “total quantity of glutathione per protein quantity” value with glutathione was “promotes production of glutathione”.

On to PEG-12 glycerol dimyristate [GDM12], for which the “average diameters of vesicles” value in the series “Diameter of vesicles” is “about 140 nm”.
